Structures are written as SMILES. Like-named read-outs stand apart in the source and are kept apart here.

In one assay the target is T1, Cannabinoid CB1 Receptor (Homo sapiens, UniProt P21554).
T1 construct: expressed in transfected cells
Description: Binding assay for CB1 agonists or inverse agonists (radioligand competition, membranes of transfected SK-N-MC cells).

The target of the next assay is T2, Cannabinoid CB2 Receptor (Homo sapiens, UniProt P34972).
T2 construct: expressed in transfected cells
T2 sequence (P34972 whole entry): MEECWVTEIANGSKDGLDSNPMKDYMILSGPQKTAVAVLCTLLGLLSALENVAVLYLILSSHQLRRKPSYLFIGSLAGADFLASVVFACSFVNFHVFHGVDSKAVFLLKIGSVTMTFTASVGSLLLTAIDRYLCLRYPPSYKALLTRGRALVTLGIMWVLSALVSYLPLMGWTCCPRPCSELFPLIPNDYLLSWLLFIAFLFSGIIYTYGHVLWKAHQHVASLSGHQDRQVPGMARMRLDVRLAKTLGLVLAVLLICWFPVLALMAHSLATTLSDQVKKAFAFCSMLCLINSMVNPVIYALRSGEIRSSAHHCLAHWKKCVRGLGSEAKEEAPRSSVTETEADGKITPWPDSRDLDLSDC
Description: Binding assay for CB2 agonists or inverse agonists (radioligand competition, membranes of transfected SK-N-MC cells). As to conditions: for inhibition at 0.2 µM: read-out: Cannabinoid CB2 Receptor Binding percent inhibition.

The target of a further assay is CB1 receptor (human) (Homo sapiens, UniProt P21554). Description: cell-based. The note with it: for CB1 Receptor Functional Activity (change in functional activity, CRE β-gal): one compound concentration, β-galactosidase activity relative to vehicle treated cells.
Chain of CB1 receptor (human) (P21554 whole entry): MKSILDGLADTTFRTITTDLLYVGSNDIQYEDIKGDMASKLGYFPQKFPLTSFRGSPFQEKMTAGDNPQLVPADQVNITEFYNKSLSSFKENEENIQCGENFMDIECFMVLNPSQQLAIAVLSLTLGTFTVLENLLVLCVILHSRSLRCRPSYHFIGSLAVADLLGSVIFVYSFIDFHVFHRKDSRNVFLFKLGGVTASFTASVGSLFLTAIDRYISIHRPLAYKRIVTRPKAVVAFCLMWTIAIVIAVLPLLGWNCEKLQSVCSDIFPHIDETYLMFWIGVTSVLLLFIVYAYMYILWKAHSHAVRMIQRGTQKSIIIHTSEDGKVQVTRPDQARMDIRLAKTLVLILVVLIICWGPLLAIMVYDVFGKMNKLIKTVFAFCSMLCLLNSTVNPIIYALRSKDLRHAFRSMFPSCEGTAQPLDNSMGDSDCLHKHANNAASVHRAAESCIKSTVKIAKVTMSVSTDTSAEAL
[1] abbreviates: test concentration of 0.2 μM, compounds without an IC50 binding value.

T1 sequence (P21554 whole entry): as above

Regarding `CC(=O)N1C/C(=C\c2ccc(F)cc2)c2c(c(C(=O)N(C(C)=O)N3CCCCC3)nn2-c2ccc(Cl)cc2Cl)C1` [Cpd 134, (7E)-5-acetyl-1-(2,4-dichloro-phenyl)-7-(4-fluoro-benzylidene)-4,5,6,7-tetrahydro-1H-pyrazolo[4,3-c]pyridine-3-carboxylic acid acetyl-piperidin-1-yl-amide], the inhibition at 0.2 µM on Cannabinoid CB1 Receptor (read-out: Cannabinoid CB1 Receptor Binding percent inhibition) was 50%; on Cannabinoid CB2 Receptor, 26%. The same compound gave an EC50 at CB1 receptor (human) of 20 nM.
In the case of `CC(=O)N1C/C(=C\c2ccc(F)cc2)c2c(c(C(=O)NC(C)c3ccccn3)nn2-c2ccc(Cl)cc2)C1` (centres unmarked) [Cpd 80, (7E)-5-acetyl-1-(4-chloro-phenyl)-7-(4-fluoro-benzylidene)-4,5,6,7-tetrahydro-1H-pyrazolo[4,3-c]pyridine-3-carboxylic acid (1-pyridin-2-yl-ethyl)-amide], the IC50 on Cannabinoid CB1 Receptor stood at 100 nM. Further, the inhibition at 0.2 µM at Cannabinoid CB2 Receptor came out at 0%. On CB1 receptor (human), this compound gave an EC50 of 9 nM.
Regarding `C[C@@H](NC(=O)c1nn(-c2ccc(Cl)cc2Cl)c2c1CN(C=O)C/C2=C\c1ccc(F)cc1)c1ccccc1` [Cpd 46, (7E)-1-(2,4-dichloro-phenyl)-7-(4-fluoro-benzylidene)-5-formyl-4,5,6,7-tetrahydro-1H-pyrazolo[4,3-c]pyridine-3-carboxylic acid [(1R)-1-phenyl-ethyl]-amide], the IC50 on Cannabinoid CB1 Receptor was 6 nM. Also, the inhibition at 0.2 µM on Cannabinoid CB2 Receptor was 18%. The compound further had an EC50 on CB1 receptor (human) of 0.1 nM.
As to `CC(=O)N1C/C(=C\c2ccc(F)cc2)c2c(c(C(=O)N[C@H](C)c3ccccc3)nn2-c2ccc(Cl)cc2Cl)C1` [Cpd 3, (7E)-5-acetyl-1-(2,4-dichloro-phenyl)-7-(4-fluoro-benzylidene)-4,5,6,7-tetrahydro-1H-pyrazolo[4,3-c]pyridine-3-carboxylic acid [(1R)-1-phenyl-ethyl]-amide], the IC50 on Cannabinoid CB1 Receptor was determined as 10 nM. Besides, the inhibition at 0.2 µM at Cannabinoid CB2 Receptor was determined as 20%. The EC50 on CB1 receptor (human) came to 3 nM.
For `COC(=O)N1CCc2c(c(C(=O)NC3C4(C)CCC(C4)C3(C)C)nn2-c2ccccc2)C1` (centres unmarked) [Cpd 115, 1-phenyl-3-(1,3,3-trimethyl-bicyclo[2.2.1]hept-2-ylcarbamoyl)-1,4,6,7-tetrahydro-pyrazolo[4,3-c]pyridine-5-carboxylic acid methyl ester], the results for the IC50 at Cannabinoid CB1 Receptor and on Cannabinoid CB2 Receptor were 2700 nM and 90 nM, respectively. For the same compound, the “CB1 Receptor Functional Activity (change in functional activity, CRE β-gal)” value at CB1 receptor (human) is recorded as 81%.
As for `COc1ccc(/C=C2\CNCc3c(C(=O)NN4CCCCC4)nn(-c4ccc(Cl)cc4Cl)c32)cc1` [Cpd 50, (7E)-1-(2,4-dichloro-phenyl)-7-(4-methoxy-benzylidene)-4,5,6,7-tetrahydro-1H-pyrazolo[4,3-c]pyridine-3-carboxylic acid piperidin-1-ylamide], on Cannabinoid CB1 Receptor, the IC50 is 100 nM. Moreover, the inhibition at 0.2 µM on Cannabinoid CB2 Receptor was 20%. The EC50 at CB1 receptor (human) came to 2 nM.
With `C[C@@H](NC(=O)c1nn(Cc2ccccc2)c2c1CN(C(=O)OC(C)(C)C)CC2)C1CCCCC1` [Cpd 103, 1-benzyl-3-[(1R)-1-cyclohexyl-ethylcarbamoyl]-1,4,6,7-tetrahydro-pyrazolo[4,3-c]pyridine-5-carboxylic acid tert-butyl ester], the IC50 is 300 nM at Cannabinoid CB1 Receptor (human CB1, SK-N-MC cell membranes, calculated by linear regression from percent inhibition at various concentrations, read-out: Cannabinoid CB1 Receptor Binding IC50) and 900 nM on Cannabinoid CB2 Receptor (human CB2, SK-N-MC cell membranes, calculated by linear regression from percent inhibition at various concentrations, read-out: Cannabinoid CB2 Receptor Binding IC50). The “CB1 Receptor Functional Activity (change in functional activity, CRE β-gal)” value on CB1 receptor (human) stood at 8%.
Compound `COC(=O)N1C/C(=C\c2ccc(OC)cc2)c2c(c(C(=O)N[C@H](C)c3ccccc3)nn2-c2ccc(Cl)cc2Cl)C1` [Cpd 44] registered an IC50 at Cannabinoid CB1 Receptor of 2 nM. The inhibition at 0.2 µM at Cannabinoid CB2 Receptor was determined as 69%. At CB1 receptor (human), this compound came in with an EC50 of 0.2 nM.
In the case of `COC(=O)N1C/C(=C\c2ccc(F)cc2)c2c(c(C(=O)NC(C)c3ccccn3)nn2-c2ccc(Cl)cc2)C1` (centres unmarked) [Cpd 79, (7E)-1-(4-chloro-phenyl)-7-(4-fluoro-benzylidene)-3-(1-pyridin-2-yl-ethylcarbamoyl)-1,4,6,7-tetrahydro-pyrazolo[4,3-c]pyridine-5-carboxylic acid methyl ester], on Cannabinoid CB1 Receptor, the IC50 came out at 10 nM. For the same compound, the inhibition at 0.2 µM on Cannabinoid CB2 Receptor was 13%. Also, the EC50 on CB1 receptor (human) was 3 nM.
As for `COc1ccc(/C=C2\CN(C(=O)OC(C)(C)C)Cc3c(C(=O)N[C@H](C)c4ccccc4)nn(-c4ccc(Cl)cc4Cl)c32)cc1` [Cpd 35, (7E)-1-(2,4-dichloro-phenyl)-7-(4-methoxy-benzylidene)-3-[(1R)-1-phenyl-ethylcarbamoyl]-1,4,6,7-tetrahydro-pyrazolo[4,3-c]pyridine-5-carboxylic acid tert-butyl ester], on Cannabinoid CB1 Receptor, the IC50 came to 20 nM. The inhibition at 0.2 µM at Cannabinoid CB2 Receptor is 27%. The same compound showed an EC50 at CB1 receptor (human) of 4 nM.
The like results for `C[C@@H](NC(=O)c1nn(-c2ccc(Cl)cc2)c2c1CN(S(=O)(=O)N(C)C)C/C2=C\c1ccc(F)cc1)c1ccccc1` [Cpd 70, (7E)-1-(4-chloro-phenyl)-5-dimethylsulfamoyl-7-(4-fluoro-benzylidene)-4,5,6,7-tetrahydro-1H-pyrazolo[4,3-c]pyridine-3-carboxylic acid [(1R)-1-phenyl-ethyl]-amide] were, in that order, 9 nM, 13% and 1 nM.
For the compound `C[C@@H](NC(=O)c1nn(-c2ccc(Cl)cc2)c2c1CNC/C2=C\c1ccc(F)cc1)c1ccccc1` [Cpd 66, (7E)-1-(4-chloro-phenyl)-7-(4-fluoro-benzylidene)-4,5,6,7-tetrahydro-1H-pyrazolo[4,3-c]pyridine-3-carboxylic acid [(1R)-1-phenyl-ethyl]-amide], the IC50 at Cannabinoid CB1 Receptor worked out at 20 nM. Besides, the inhibition at 0.2 µM at Cannabinoid CB2 Receptor (setting [1]) was 5%. Besides, at CB1 receptor (human), the 50% effective concentration (EC50) is 10 nM.
As to `CC(=O)N1CCc2c(c(C(=O)NC3C4(C)CCC(C4)C3(C)C)nn2Cc2ccccc2)C1` (centres unmarked) [Cpd 109, 5-acetyl-1-benzyl-4,5,6,7-tetrahydro-1H-pyrazolo[4,3-c]pyridine-3-carboxylic acid (1,3,3-trimethyl-bicyclo[2.2.1]hept-2-yl)-amide], the IC50 was 1300 nM on Cannabinoid CB1 Receptor and 80 nM at Cannabinoid CB2 Receptor. On CB1 receptor (human), this compound showed an EC50 of 8100 nM.
On to `COc1ccc(/C=C2\CN(S(C)(=O)=O)Cc3c(C(=O)N[C@H](C)c4ccccn4)nn(-c4ccc(Cl)cc4Cl)c32)cc1` [Cpd 99, (7E)-1-(2,4-dichloro-phenyl)-5-methanesulfonyl-7-(4-methoxy-benzylidene)-4,5,6,7-tetrahydro-1H-pyrazolo[4,3-c]pyridine-3-carboxylic acid [(1R)-1-pyridin-2-yl-ethyl]-amide], for which the IC50 at Cannabinoid CB1 Receptor is 2 nM. In addition, the inhibition at 0.2 µM at Cannabinoid CB2 Receptor was 32%. In addition, on CB1 receptor (human), a half-maximal response (EC50) required 3 nM.
Consider `Cc1ccc(S(=O)(=O)N2C/C(=C\c3ccc(F)cc3)c3c(c(C(=O)N[C@H](C)C4CCCCC4)nn3-c3ccc(Cl)cc3Cl)C2)cc1` [Cpd 31, (7E)-1-(2,4-dichloro-phenyl)-7-(4-fluoro-benzylidene)-5-(toluene-4-sulfonyl)-4,5,6,7-tetrahydro-1H-pyrazolo[4,3-c]pyridine-3-carboxylic acid [(1R)-1-cyclohexyl-ethyl]-amide], for which the IC50 at Cannabinoid CB1 Receptor came out at 30 nM. Besides, the “Cannabinoid CB2 Receptor Binding percent inhibition” value on Cannabinoid CB2 Receptor (setting [1]) is recorded as 29%. This compound also yielded an EC50 at CB1 receptor (human) of 1100 nM.
At Cannabinoid CB1 Receptor, `C[C@@H](NC(=O)c1nn(-c2ccc(Cl)cc2Cl)c2c1CN(S(C)(=O)=O)C/C2=C\c1ccc(F)cc1)C1CCCCC1` [Cpd 30, (7E)-1-(2,4-dichloro-phenyl)-7-(4-fluoro-benzylidene)-5-methanesulfonyl-4,5,6,7-tetrahydro-1H-pyrazolo[4,3-c]pyridine-3-carboxylic acid [(1R)-1-cyclohexyl-ethyl]-amide] came in with an IC50 of 7 nM. For the same compound, the inhibition at 0.2 µM on Cannabinoid CB2 Receptor was found to be 1%. Moreover, at CB1 receptor (human), a half-maximal effect (EC50) was put at 1 nM.
`CC(NC(=O)c1nn(-c2ccc(Cl)cc2Cl)c2c1CN(C)C/C2=C\c1ccc(F)cc1)c1ccccn1` (centres unmarked) [Cpd 29, (7E)-1-(2,4-dichloro-phenyl)-7-(4-fluoro-benzylidene)-5-methyl-4,5,6,7-tetrahydro-1H-pyrazolo[4,3-c]pyridine-3-carboxylic acid (1-pyridin-2-yl-ethyl)-amide] yielded an IC50 at Cannabinoid CB1 Receptor of 60 nM. In addition, the inhibition at 0.2 µM at Cannabinoid CB2 Receptor stood at 6%. The compound further displayed an EC50 at CB1 receptor (human) of 6 nM.
The like results for `C[C@@H](NC(=O)c1nn(-c2ccc(Cl)cc2Cl)c2c1CN(C(=O)OCc1ccccc1)C/C2=C\c1ccc(F)cc1)c1ccccc1` [Cpd 16, (7E)-1-(2,4-dichloro-phenyl)-7-(4-fluoro-benzylidene)-3-[(1R)-1-phenyl-ethylcarbamoyl]-1,4,6,7-tetrahydro-pyrazolo[4,3-c]pyridine-5-carboxylic acid benzyl ester] were, in that order, 20 nM, 27% and 60 nM.
In turn, `CCNC(=O)N1C/C(=C\c2ccc(OC)cc2)c2c(c(C(=O)NC(C)c3ccccn3)nn2-c2ccc(Cl)cc2Cl)C1` (centres unmarked) [Cpd 61, (7E)-1-(2,4-dichloro-phenyl)-7-(4-methoxy-benzylidene)-1,4,6,7-tetrahydro-pyrazolo[4,3-c]pyridine-3,5-dicarboxylic acid 5-ethylamide 3-[(1-pyridin-2-yl-ethyl)-amide]] displayed an IC50 on Cannabinoid CB1 Receptor of 20 nM. The inhibition at 0.2 µM at Cannabinoid CB2 Receptor is 7%. On CB1 receptor (human), this compound showed an EC50 of 5 nM.
For the compound `CCNC(=O)N1CCc2c(c(C(=O)NC3C4(C)CCC(C4)C3(C)C)nn2C2CCCCC2)C1` (centres unmarked) [Cpd 129, 1-cyclohexyl-1,4,6,7-tetrahydro-pyrazolo[4,3-c]pyridine-3,5-dicarboxylic acid 5-ethylamide 3-[(1,3,3-trimethyl-bicyclo[2.2.1]hept-2-yl)-amide]], at Cannabinoid CB1 Receptor, the IC50 was 1000 nM. The “CB1 Receptor Functional Activity (change in functional activity, CRE β-gal)” value at CB1 receptor (human) worked out at 36%.

The values are drawn from patent US20060089378A1 (priority 2004, published 2006).
